Usually inhibition stands for the drop in the measured response relative to a control, in per cent. A higher inhibition goes with strong suppression.

21 compounds from US20020128231A1 (priority 2000, published 2002) can be followed below.

The target of one data set is P-glycoprotein (Homo sapiens, UniProt P08183). Put plainly: Rhodamine 123 transport assay across HCT-8 cell monolayers. The settings on record: compound 10 μM, Rh123 15 μM, HCT-8 cells; for inhibition at 10 μM: human, HCT-8 cell monolayers in Transwell dishes, probe Rhodamine 123 (15 μM), % Inhibition of R123 Transport.
Chain of P-glycoprotein (P08183 whole entry): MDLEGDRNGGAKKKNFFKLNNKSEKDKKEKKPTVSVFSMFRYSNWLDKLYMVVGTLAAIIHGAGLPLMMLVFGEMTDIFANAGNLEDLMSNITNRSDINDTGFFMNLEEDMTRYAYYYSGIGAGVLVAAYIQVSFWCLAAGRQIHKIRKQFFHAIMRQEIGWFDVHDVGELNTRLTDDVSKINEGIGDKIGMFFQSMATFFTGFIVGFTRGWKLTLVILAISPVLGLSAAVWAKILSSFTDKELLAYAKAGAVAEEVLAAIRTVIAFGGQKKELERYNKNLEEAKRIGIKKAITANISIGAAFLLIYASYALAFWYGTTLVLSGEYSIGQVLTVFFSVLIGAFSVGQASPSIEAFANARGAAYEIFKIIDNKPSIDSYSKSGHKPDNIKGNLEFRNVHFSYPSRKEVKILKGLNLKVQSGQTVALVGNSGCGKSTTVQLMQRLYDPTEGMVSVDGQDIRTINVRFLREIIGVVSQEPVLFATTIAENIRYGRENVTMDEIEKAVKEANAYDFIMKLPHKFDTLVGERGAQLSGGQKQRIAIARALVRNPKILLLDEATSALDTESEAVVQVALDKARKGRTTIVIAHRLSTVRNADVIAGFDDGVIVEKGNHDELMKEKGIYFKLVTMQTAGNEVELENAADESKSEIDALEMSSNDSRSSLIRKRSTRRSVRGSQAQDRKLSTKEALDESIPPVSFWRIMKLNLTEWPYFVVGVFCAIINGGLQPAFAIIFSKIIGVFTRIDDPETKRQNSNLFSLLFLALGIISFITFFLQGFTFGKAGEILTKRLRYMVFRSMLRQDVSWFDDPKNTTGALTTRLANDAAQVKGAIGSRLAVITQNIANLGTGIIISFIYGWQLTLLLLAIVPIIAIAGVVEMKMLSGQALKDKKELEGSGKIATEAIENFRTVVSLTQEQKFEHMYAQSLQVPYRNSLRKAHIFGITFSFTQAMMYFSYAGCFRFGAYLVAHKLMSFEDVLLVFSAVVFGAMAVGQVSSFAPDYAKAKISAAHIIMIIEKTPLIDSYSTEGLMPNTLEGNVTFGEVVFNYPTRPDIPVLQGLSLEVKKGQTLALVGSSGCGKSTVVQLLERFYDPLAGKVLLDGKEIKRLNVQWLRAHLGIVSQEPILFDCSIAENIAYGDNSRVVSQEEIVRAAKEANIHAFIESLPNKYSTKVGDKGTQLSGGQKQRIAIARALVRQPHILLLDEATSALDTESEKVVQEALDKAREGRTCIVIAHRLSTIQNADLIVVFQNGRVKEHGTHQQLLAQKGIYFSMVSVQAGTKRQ
Data set [1] relates to MDR1-expressing NIH 3T3 cells. In words: Cytotoxicity (MTT) assay: modulation of drug cytotoxicity in multidrug resistant cells. The settings on record: for Modulation of Drug Resistance (percentage increase in doxorubicin cytotoxicity in the presence of the compounds versus in their absence): compound 5 μM, 50 nM doxorubicin, 72 hours, MTT.
Experimental: Cytotoxicity assays were performed with many of the compounds of Formula I to verify their usefulness as inhibitors of P-gp.
Parental NIH3T3 Swiss mouse embryo cell line was obtained from American Type Culture Collection and was grown in Dulbecco's Modified Eagles Medium supplemented with 4.5 g/L glucose, 10% fetal bovine serum, 2 mM L-glutamine, and 0.01 mg/ml gentamicin. […] All cells were maintained in a humidified atmosphere with 5% CO2 at 37° C.
Parental and MDR1-expressing NIH 3T3 cells were plated at a density of 2.5-3.0×10^3 cells/well in 96-well microtiter plates and were exposed to 50 nM of doxoriubicin, 7.5 nM vinblastine, 75 nM colchicine or 300 nM paclitaxel for 72 hours. Cell viability was determined with the colorimetric MTT (3-(4,5-dimethylthiazol-2-yl)-2,5-diphenyl tetrazolium) assay as previously described (Mosmann T., J. Immunol. Methods, 65: 55-63 (1983); Hansen M. B. et al., J. Immunol. Methods, 119: 203-210 (1989)) and the absorbance was measured at 570 nm.

SMILES strings stand for the structures.

As for `CCCCCCN(CCCCCC)C(=O)CC1c2cc(OC)c(OC)cc2C(c2ccc(OC)c(OC)c2)C1C(=O)N(CCCCCC)CCCCCC` (centres unmarked) [AV-193, 1-(3,4-dimethoxyphenyl)-3-dihexylcarbamoylmethyl-5,6-dimethoxy-indan-2-carboxylic acid dihexyl amide], the inhibition at 10 μM on P-glycoprotein stood at 11.8%. In addition, the “Modulation of Drug Resistance (percentage increase in doxorubicin cytotoxicity in the presence of the compounds versus in their absence)” value in data set [1] is 25.20%.
Take `COCC1C(CCN2CCN(c3ccccc3)CC2)c2cc(OC)c(OC)cc2C1c1ccc(OC)c(OC)c1` (centres unmarked) [AV-198, 1-{-2-[3-(3,4-dimethoxyphenyl)-5,6-dimethoxy-2-methoxymethyl-indan-1-yl]-ethyl}-4-phenylpiperazine]: the inhibition at 10 μM at P-glycoprotein came to 84.7%. Also, the “Modulation of Drug Resistance (percentage increase in doxorubicin cytotoxicity in the presence of the compounds versus in their absence)” value in data set [1] turned out to be 58.65%.
Taken in the same sequence, the figures for `COCC1C(CCN2CCN(c3ccc(OC)cc3)CC2)c2cc(OC)c(OC)cc2C1c1ccc(OC)c(OC)c1` (centres unmarked) [AV-199, 1-{-2-[3-(3,4-dimethoxyphenyl)-5,6-dimethoxy-2-methoxymethyl-indan-1-yl]-ethyl}-4-(4-methoxyphenyl)-piperazine] were 84% and 61.63%.
Consider `COCC1C(CCN2CCN(C(=O)OCc3ccccc3)CC2)c2cc(OC)c(OC)cc2C1c1ccc(OC)c(OC)c1` (centres unmarked) [AV-200, 4-{2-[3-(3,4-dimethoxyphenyl)-5,6-dimethoxy-2-methoxymethyl-indan-1-yl]-ethyl}-piperazine-1-carboxylic acid benzyl ester], for which the inhibition at 10 μM against P-glycoprotein stood at 86.4%. The “Modulation of Drug Resistance (percentage increase in doxorubicin cytotoxicity in the presence of the compounds versus in their absence)” value in data set [1] is 61.40%.
Regarding `COCC1C(CCN2CCN(c3ccc(F)cc3)CC2)c2cc(OC)c(OC)cc2C1c1ccc(OC)c(OC)c1` (centres unmarked) [AV-201, 1-{-2-[3-(3,4-dimethoxyphenyl)-5,6-dimethoxy-2-methoxymethyl-indan-1-yl]-ethyl}-4-(4-fluorophenyl)-piperazine], at P-glycoprotein, the inhibition at 10 μM stood at 83.8%. For the same compound, in data set [1], the “Modulation of Drug Resistance (percentage increase in doxorubicin cytotoxicity in the presence of the compounds versus in their absence)” value is listed as 66.44%.
`COCC1C(CCN2CCN(c3ccccc3OC)CC2)c2cc(OC)c(OC)cc2C1c1ccc(OC)c(OC)c1` (centres unmarked) [AV-202, 1{-2-[3-(3,4-dimethoxyphenyl)-5,6-dimethoxy-2-methoxymethyl-indan-1-yl]-ethyl}-4-(2-methoxyphenyl)-piperazine] yielded an inhibition at 10 μM against P-glycoprotein of 88.4%. Besides, the “Modulation of Drug Resistance (percentage increase in doxorubicin cytotoxicity in the presence of the compounds versus in their absence)” value in data set [1] is on record as 59.68%. In data set [1] (doxorubicin 0-750 nM, compound 50-1000 nM), the “dose responsive sensitization of multidrug resistant cells to doxorubicin (FIG. 5)” value is given as “dose responsive sensitization”. Besides, in data set [1] (vinblastine 0-100 nM, compound 50-1000 nM), the “dose response inhibition of P-glycoprotein in the presence of vinblastine (FIG. 6)” value is on record as “dose response data inhibition of P-glycoprotein”.
With `COCC1C(CCN2CCN(c3ccc(C(C)=O)cc3)CC2)c2cc(OC)c(OC)cc2C1c1ccc(OC)c(OC)c1` (centres unmarked) [AV-203], the “% Inhibition of R123 Transport” value on P-glycoprotein worked out at 77.9%. Also, the “Modulation of Drug Resistance (percentage increase in doxorubicin cytotoxicity in the presence of the compounds versus in their absence)” value in data set [1] came out at 84.65%.
`CCOc1ccccc1N1CCN(C(=O)CC2c3cc(OC)c(OCc4ccccc4)cc3C(c3ccc(OCc4ccccc4)c(OC)c3)C2C(=O)N2CCN(c3ccccc3OCC)CC2)CC1` (centres unmarked) [AV-205, 2-{5-benzyloxy-3-(4-benzyloxy-3-methoxyphenyl)-2-{4-(2-ethoxyphenyl)-piperazine-1-carbonyl}-6-methoxy-indan-1-yl}-1-{4-(2-ethoxyphenyl)-piperazin-1-yl]-ethanone] returned an inhibition at 10 μM on P-glycoprotein of 53.6%. Further, the “Modulation of Drug Resistance (percentage increase in doxorubicin cytotoxicity in the presence of the compounds versus in their absence)” value in data set [1] came out at 35.56%.
For `CCOc1ccccc1N1CCN(C(=O)CC2c3cc(OC)c(O)cc3C(c3ccc(O)c(OC)c3)C2C(=O)N2CCN(c3ccccc3OCC)CC2)CC1` (centres unmarked) [AV-206, 2-[2-[4-(2-ethoxyphenyl)-piperazine-1-carbonyl]-5-hydroxy-3-(4-hydroxy-3-methoxyphenyl)-6-methoxy-indan-1-yl]-1-[4(2-ethoxyphenyl)-piperazin-1-yl]-ethanone], the inhibition at 10 μM on P-glycoprotein was 88.2%. Besides, in data set [1], the “Modulation of Drug Resistance (percentage increase in doxorubicin cytotoxicity in the presence of the compounds versus in their absence)” value was 54.78%.
Taken in the same sequence, the figures for `CCOc1ccc(C2c3cc(OCC)c(OC)cc3C(CC(=O)N3CCN(c4ccccc4OCC)CC3)C2C(=O)N2CCN(c3ccccc3OCC)CC2)cc1OC` (centres unmarked) [AV-207, 2-{5-ethoxy-3-(4-ethoxy-3-methoxyphenyl)-2-[4-(2-ethoxyphenyl)-piperazine-1-carbonyl]-6-methoxy-indan-1-yl}-1-[4-(2-ethoxyphenyl)-piperazin-1-yl]-ethanone] were 89.7% and 55.08%.
Regarding `CCCCOc1ccc(C2c3cc(OCCCC)c(OC)cc3C(CC(=O)N3CCN(c4ccccc4OCC)CC3)C2C(=O)N2CCN(c3ccccc3OCC)CC2)cc1OC` (centres unmarked) [AV-208, 2-{5-butoxy-3-(4-butoxy-3-methoxyphenyl)-2-[4-(2-ethoxyphenyl)-piperazine-1-carbonyl]-6-methoxy-indan-1-yl}-1-[4-(2-ethoxyphenyl)-piperazin-1-yl]-ethanone], the inhibition at 10 μM against P-glycoprotein came out at 86.1%. For the same compound, the “Modulation of Drug Resistance (percentage increase in doxorubicin cytotoxicity in the presence of the compounds versus in their absence)” value in data set [1] worked out at 51.78%.
Taken in the same sequence, the figures for `CCCCCCCCCCOc1ccc(C2c3cc(OCCCCCCCCCC)c(OC)cc3C(CC(=O)N3CCN(c4ccccc4OCC)CC3)C2C(=O)N2CCN(c3ccccc3OCC)CC2)cc1OC` (centres unmarked) [AV-209, 2-{5-decyloxy-3-(4-decyloxy-3-methoxyphenyl)-2-[4-(2-ethoxyphenyl)-piperazine-1-carbonyl]-6-methoxy-indan-1-yl}-1-[4-(2-ethoxyphenyl)-piperazin-1-yl]-ethanone] were 47.3% and 1.16%.
As to `COc1ccc(C2c3cc(OC)c(OC)cc3C(CCNS(=O)(=O)c3ccccc3)C2CNS(=O)(=O)c2ccccc2)cc1OC` (centres unmarked) [AV-223, N-{2-[(2-N-methyl)-benzenesulfonamide-3-(3,4-dimethoxyphenyl)-5,6-dimethoxy-indan-1-yl}-ethyl}-benzensulfonamide], on P-glycoprotein, the “% Inhibition of R123 Transport” value is 74.50%. For the same compound, the “Modulation of Drug Resistance (percentage increase in doxorubicin cytotoxicity in the presence of the compounds versus in their absence)” value in data set [1] was 36.55%.
The corresponding values for `COc1ccc(C2c3cc(OC)c(OC)cc3C(CCNC(=O)NCc3ccccc3)C2CNC(=O)NCc2ccccc2)cc1OC` (centres unmarked) [AV-234, 10-benzyl-3-{2-[2-(3-benzyl-ureidomethyl)-3-(3,4-dimethoxyphenyl)-5,6-dimethoxy-indan-1-yl]-ethyl}-urea] are 37.58% and 12.50%.
Regarding `CCOc1ccccc1N1CCN(C(=O)CC2c3cc(OC)c(OC)cc3C(c3ccc(OC)c(OC)c3)C2C(=O)O)CC1` (centres unmarked) [AV-250, 1-(3,4-Dimethoxy-phenyl)-3-{2-[4-(2-ethoxy-phenyl)-piperazin-1-yl]-2-oxo-ethyl}-5,6-dimethoxy-indan-2-carboxylic acid], the inhibition at 10 μM against P-glycoprotein came out at 55.9%. Further, the “Modulation of Drug Resistance (percentage increase in doxorubicin cytotoxicity in the presence of the compounds versus in their absence)” value in data set [1] is listed as −7.1%.
At P-glycoprotein, `CCCCCOc1ccc(C2c3cc(OCCCCC)c(OC)cc3C(CC(=O)N3CCN(c4ccccc4OCC)CC3)C2C(=O)N2CCN(c3ccccc3OCC)CC2)cc1OC` (centres unmarked) [AV-252, 2-[2-[4-(2-Ethoxy-phenyl)-piperazine-1-carbonyl]-6-methoxy-3-(3-methoxy-4-pentyloxy-phenyl)-5-pentyloxy-indan-1-yl]-1-[4-(2-ethoxy-phenyl)-piperazin-1-yl]ethanone] came in with an inhibition at 10 μM of 64.2%. Moreover, the “Modulation of Drug Resistance (percentage increase in doxorubicin cytotoxicity in the presence of the compounds versus in their absence)” value in data set [1] is recorded as −0.5%.
On to `CCOc1ccc(C2c3cc(OCC)c(OCC)cc3C(CC(=O)N3CCN(c4ccccc4OCC)CC3)C2C(=O)N2CCN(c3ccccc3OCC)CC2)cc1OCC` (centres unmarked) [AV-253], for which the “% Inhibition of R123 Transport” value at P-glycoprotein is recorded as 92.03%. Also, the “Modulation of Drug Resistance (percentage increase in doxorubicin cytotoxicity in the presence of the compounds versus in their absence)” value in data set [1] worked out at 19.8%.
Regarding `CCCOc1ccc(C2c3cc(OCCC)c(OCCC)cc3C(CC(=O)N3CCN(c4ccccc4OCC)CC3)C2C(=O)N2CCN(c3ccccc3OCC)CC2)cc1OCCC` (centres unmarked) [AV-254, 2-{3-(3,4-Dipopoxy-phenyl)-2-[4-(2-ethoxy-phenyl)-piperazine-1-carbonyl]-5,6-dipropoxy-indan-1-yl}-1-[4-(2-ethoxy-phenyl)-piperazin-1-yl]-ethanone], the “% Inhibition of R123 Transport” value at P-glycoprotein is reported as 18.70%. Moreover, in data set [1], the “Modulation of Drug Resistance (percentage increase in doxorubicin cytotoxicity in the presence of the compounds versus in their absence)” value was determined as 4.1%.
Take `CCCCOc1ccc(C2c3cc(OCCCC)c(OCCCC)cc3C(CC(=O)N3CCN(c4ccccc4OCC)CC3)C2C(=O)N2CCN(c3ccccc3OCC)CC2)cc1OCCCC` (centres unmarked) [AV-255, 2-{3-(3,4-Dibutoxy-phenyl)-2-[4-(2-ethoxy-phenyl)-piperazine-1-carbonyl]-5,6-dibutoxy-indan-1-yl}-1-[4-(2-ethoxy-phenyl)-piperazin-1-yl]-ethanone]: the inhibition at 10 μM at P-glycoprotein stood at 96%. Besides, the “Modulation of Drug Resistance (percentage increase in doxorubicin cytotoxicity in the presence of the compounds versus in their absence)” value in data set [1] is 6.7%.
For the compound `CCOc1ccccc1N1CCN(C(=O)CC2c3cc(OC)c(OC)cc3C(c3ccc(OC)c(OC)c3)C2C(=O)N2CCN(C)CC2)CC1` (centres unmarked) [AV-256], at P-glycoprotein, the “% Inhibition of R123 Transport” value was 75.61%. In addition, the “Modulation of Drug Resistance (percentage increase in doxorubicin cytotoxicity in the presence of the compounds versus in their absence)” value in data set [1] came out at 8.7%.
`CCOc1ccccc1N1CCN(C(=O)CC2c3cc(OC)c(OC)cc3C(c3ccc(OC)c(OC)c3)C2C(=O)N(C)C)CC1` (centres unmarked) [AV-257, 1-(3,4-Dimethoxy-phenyl)-3-{2-[4-(2-ethoxy-phenyl)-piperazin-1-yl]-2-oxo-ethyl}-5,6-dimethoxy-indan-2-carboxylic acid dimethylamide] displayed an inhibition at 10 μM against P-glycoprotein of 80.4%. The “Modulation of Drug Resistance (percentage increase in doxorubicin cytotoxicity in the presence of the compounds versus in their absence)” value in data set [1] is given as 8.7%.
